In patent US20020164574A1 (priority 2001, published 2002):
“Also recorded” adds a separate entry of the source.

How the values were obtained:
[1] = test system: M. grisea and S. cerevisiae; assay type: cell-based; conditions: OD600; rich liquid media; two fold dilution series; species not given
[2] = test system: S. cerevisiae; assay: YT MicroPlate carbon utilization test with fungicide treatment; assay type: cell-based; conditions: sub-inhibitory concentration of fungicide; 48 hours incubation; YT MicroPlate (Biolog); FIG. 2
Procedure: The YT microplate test panel (Biolog, Inc.) is designed as a tool for identifying a broad range of yeasts by their carbon utilization patterns. Initial tests were performed with S. cerevisiae in these plates with and without the addition of various fungicides. Very simply, yeast cells are prepared as a water suspension as per the YT microplate instructions. Prior to loading the plates with cells, a fungicide or solvent control is added to the water suspension. The cells are immediately loaded onto a plate. The plates were incubated at 26° C. as per instructions, and OD490 and OD750 readings were obtained at various time points during incubation. The results of fungicide treated samples and controls are compared. Differences in well growth that is altered relative to the control is recorded and is presumed to relate to the mode-of-action of the chemical.
A test in the YT microplate was set up using the sub-inhibitory concentration of three fungicides for which a putative MOA is known. Two fungicides, benomyl and fenpropimorph are predicted to have no effect on carbon utilization, but the third, fenpiclonil, is predicted to affect glucose uptake and utilization. The experiments were performed as described.

| Compound | growth inhibition by spectrophotometric analysis [1] | utilization of carbon sources, fungicide treatment compared to controls [2] |
| --- | --- | --- |
| O=C1CCc2cccc3c2N1CC3 [pyroquilon] | no growth inhibition | – |
| CCCCNC(=O)n1c(NC(=O)OC)nc2ccccc21 [benomyl] | – | did not result in any significant differences from the controls |
| Cc1cccc2sc3nncn3c12 [tricyclazole] | no growth inhibition | – |
| CC(Cc1ccc(C(C)(C)C)cc1)CN1C[C@@H](C)O[C@@H](C)C1 (some centres unmarked) [fenpropimorph] | – | did not result in any significant differences from the controls |
| N#Cc1c[nH]cc1-c1cccc(Cl)c1Cl [fenpiclonil] | – | decreased utilization of glucose, raffinose and sucrose; also recorded: significant changes in the utilization of glucose, raffinose, and sucrose |
